The source of these data is paper PMC9134315, “Systemic Administration of a Brain Permeable Cdk5 Inhibitor Alters Neurobehavior” (Frontiers in Pharmacology, 2022).

The target in test [1] is T1, Cdk5 (Mus musculus, UniProt P49615).
T1 construct: from tissue; host or cells: striatum of wild-type C57BL/6 mice (acute slices, or lysates after I.V. dosing)
Description: Ex vivo acute striatal brain slice pharmacology, immunoblot of phospho-Thr75 DARPP-32 and phospho-Ser1116 NR2B. The following applies: acute striatal slices, 1 h treatment, 0-10 µM; read-out: IC50, Cdk5-dependent phosphorylation of DARPP-32 and NR2B. In kind it is cell-based. Here is the method: Brain slice pharmacology was performed as described ([Nishi et al., 2000]). Briefly, the mice were decapitated, and the brains were rapidly dissected and submerged in ice-cold normal Kreb’s solution (124 mM NaCl, 4 mM KCl, 26 mM NaHCO3, 1.25 mM KH2PO4, 1.5 mM MgSO4, 10 mM D-glucose, and 1.5 mM CaCl2). The brains were subsequently sectioned into normal Kreb’s solution at 350 µ thickness. The brain slices were transferred to a 30°C solution of normal Kreb’s containing 10 µM deaminase for a 1-h recovery period. The sections were then incubated in normal Kreb’s solution with and without the indicated compounds across the dose and time ranges indicated. The sections were rapidly snap-frozen in dry ice to terminate treatment regimes.
(§1) Immunoblotting was performed as previously described ([Umfress et al., 2021]). Mouse brains were rapidly dissected in an ice-cold solution of 50 mM NaF/PBS. The regions of interest were further dissected out and rapidly snap-frozen in dry ice. The frozen tissue was homogenized in boiling lysis buffer (1% SDS, 50 mM NaF) and sonicated with several three to four pulses at 40 dB. The samples were subsequently denatured at 90°C for 5 min. Protein concentration was determined by the BCA assay, and homogenates were diluted in 4x sample buffer, separated by SDS-PAGE, and transferred to 0.45-µm nitrocellulose membranes, blocked with 5% milk solution (1 h), and probed with primary antibodies (overnight). The following antibodies were used in the study: phospho-Ser549 synapsin I (Phosphosolutions), total synapsin I (Phosphosolutions), actin (Invitrogen), phospho-Ser1116 (in-house) ([Plattner et al., 2014]), and total NR2B (Phosphosolutions), phospho-Thr75, and total DARPP-32 (Cell Signaling Technology). Visualization was performed using the Licor CLX membrane scanner and Licor secondary antibodies.
In order to assess the functional inhibition of Cdk5 in intact brain tissue by the four compounds summarized in Figure 1, acutely prepared striatal slices were treated in a dose-dependent manner (0, 0.25, 0.5, 1, 5, and 10 µM) with each inhibitor for 1 h, and Cdk5 activity was assessed via immunoblotting the phosphorylation of established Cdk5 sites, phospho-Thr75 DARPP-32 and phospho-Ser1116 NR2B ([Bibb et al., 1999]; [Plattner et al., 2014]).
A general note: In western blotting, separated proteins are transferred to a membrane and probed.

Test [2] has as its target T1, Cdk5. Kind of test: In vivo Cdk5 inhibition after I.V. injection, immunoblot of striatal phospho-Ser549 synapsin I. The following applies: for phospho-Ser549 synapsin I levels in the striatum: 50 mg/kg I.V. As to the method:
The wild-type group housed male C57BL/6 mice 10–12 weeks of age were used for all in vivo, ex vivo, and behavioral studies. This age range was selected to be consistent with previous studies of conditional Cdk5 knockout mice ([Plattner et al., 2015]). 25–106 was administered in a 20-fold dose range intravenously (I.V.) at 10, 50, 100, and 200 mg/kg for pharmacokinetic studies. This delivery mode was used as I.V. injections to avoid first-pass drug metabolism observed using other injection methods ([Pond and Tozer, 1984]). […] All animal experiments were performed under approved protocols by the University of Alabama at Birmingham (UAB) Institutional Animal Care and Use Committees and in accordance with the guidelines of the Animal Welfare Act and the Guide for the Care and Use of Laboratory Animals.
as §1
Each of the four compounds tested in brain slices was further screened for their ability to penetrate the blood–brain barrier (BBB) and inhibit Cdk5-dependent activity in vivo. For these studies, cohorts of mice were treated with each compound via I.V. injection (50 mg/kg), and brain striatal lysates from various time points were subjected to quantitative immunoblot analysis for phosho-Ser549 Synapsin I levels. Three compounds, 20–107, 20–132, and 20–143, had no effect on Cdk5 activity compared to that of vehicle alone (data not shown). […] Moreover, this effect persisted even 24 h after dosing.

A further test relates to C57BL/6 mice. Kind of test: Tail suspension test. Type of test: in vivo, mouse. The following applies: 50 mg/kg, 6 h after injection. As to the method: The tail suspension test was conducted as previously described ([Plattner et al., 2015]). The mice were suspended by their tails for a total duration of 6 min and video-recorded. Post-hoc blind experimentalists quantified the duration and latency of immobility for each randomized video. The average quantitative determents of each observer were averaged to generate the final analytic values of motion.
Next, we tested the effects of 25–106 on mouse performance in the tail-suspension test to measure depressive-like phenotypes in mice ([Cryan et al., 2005]; [Can et al., 2012]). […] Thus, 25–106 modulated several neurobehavioral behaviors that have previously been linked to Cdk5.

Structures are written as SMILES.

T1 sequence (P49615 whole entry): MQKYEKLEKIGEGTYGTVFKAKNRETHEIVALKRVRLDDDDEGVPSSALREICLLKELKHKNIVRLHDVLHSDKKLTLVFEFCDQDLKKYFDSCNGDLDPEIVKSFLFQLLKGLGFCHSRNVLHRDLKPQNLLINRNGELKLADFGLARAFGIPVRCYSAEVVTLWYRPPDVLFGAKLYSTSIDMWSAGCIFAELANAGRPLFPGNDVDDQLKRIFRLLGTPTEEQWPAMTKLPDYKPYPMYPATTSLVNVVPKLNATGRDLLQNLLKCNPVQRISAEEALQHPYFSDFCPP
T1 sequence (P61809 2-307 partner limits assumed): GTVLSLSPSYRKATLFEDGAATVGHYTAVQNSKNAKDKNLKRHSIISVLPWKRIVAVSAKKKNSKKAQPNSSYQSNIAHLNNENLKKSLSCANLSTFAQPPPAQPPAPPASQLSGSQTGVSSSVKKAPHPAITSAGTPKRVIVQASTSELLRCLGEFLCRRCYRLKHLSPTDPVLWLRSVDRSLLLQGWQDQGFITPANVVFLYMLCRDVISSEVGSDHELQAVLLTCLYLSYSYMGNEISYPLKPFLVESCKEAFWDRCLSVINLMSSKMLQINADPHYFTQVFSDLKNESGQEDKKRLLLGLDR

One may read the IC50 as the concentration that inhibits the measured activity by half. `COc1cc(CC(=O)Nc2cc(C3CCC3)[nH]n2)cc(OC)c1OC` [25–106, N-(5-cyclobutyl-1H-pyrazol-3-yl)-2-(3,4,5-trimethoxyphenyl)acetamide]: on Cdk5 [1], the IC50 fell in the range of 500 to 1000 nM. For the same molecule, the results for the “phospho-Ser549 synapsin I levels in the striatum” value on Cdk5 [2] (2 h after injection) and at Cdk5 [2] (24 h after dosing) were “significantly reduced” and “persisted”, respectively. The “Cdk5-dependent phosphorylation in brain” value on Cdk5 [2] (1 h post injection) is listed as “remained unchanged”. Moreover, the “striatal phospho-Ser549 synapsin I levels, dose-response” value at Cdk5 [2] (24 h post injection, 10, 50, 100 and 200 mg/kg I.V., approximately equal efficacy) was “significant reduction”. Besides, in the test on C57BL/6 mice, the “latency to immobility vs. vehicle” value is on record as “increased latency”. The “total immobility time vs. vehicle” value in the test on C57BL/6 mice is on record as “reduction in total immobility time”.
